The experiment has as its target T1, CTNNB1/TCF complex (Homo sapiens, UniProt P35222, DEL45-45).
T1 construct: endogenous in cells; host or cells: HCT116 nuclear extract
T1 sequence (P35222 1-781): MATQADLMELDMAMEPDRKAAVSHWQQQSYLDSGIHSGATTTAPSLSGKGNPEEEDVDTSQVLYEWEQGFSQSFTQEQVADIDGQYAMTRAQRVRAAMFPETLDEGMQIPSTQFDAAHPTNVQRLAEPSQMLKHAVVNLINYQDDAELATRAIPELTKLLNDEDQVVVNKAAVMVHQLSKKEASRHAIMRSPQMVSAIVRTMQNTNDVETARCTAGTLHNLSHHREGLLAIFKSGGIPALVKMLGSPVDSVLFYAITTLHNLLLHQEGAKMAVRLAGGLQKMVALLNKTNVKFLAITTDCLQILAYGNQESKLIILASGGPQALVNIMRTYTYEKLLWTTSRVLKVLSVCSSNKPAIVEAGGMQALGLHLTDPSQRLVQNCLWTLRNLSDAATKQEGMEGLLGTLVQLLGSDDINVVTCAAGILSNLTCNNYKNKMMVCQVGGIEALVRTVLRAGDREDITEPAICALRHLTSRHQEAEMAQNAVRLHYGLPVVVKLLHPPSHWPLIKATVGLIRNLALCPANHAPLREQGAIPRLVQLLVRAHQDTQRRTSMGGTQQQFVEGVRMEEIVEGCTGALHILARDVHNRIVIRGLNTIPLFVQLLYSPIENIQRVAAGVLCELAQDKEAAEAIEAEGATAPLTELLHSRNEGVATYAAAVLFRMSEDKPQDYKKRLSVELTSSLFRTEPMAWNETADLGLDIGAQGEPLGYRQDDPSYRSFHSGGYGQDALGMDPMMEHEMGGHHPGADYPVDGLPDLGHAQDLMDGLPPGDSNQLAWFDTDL
T1 sequence (P35222 with tags, fused parts or gaps DEL45-45): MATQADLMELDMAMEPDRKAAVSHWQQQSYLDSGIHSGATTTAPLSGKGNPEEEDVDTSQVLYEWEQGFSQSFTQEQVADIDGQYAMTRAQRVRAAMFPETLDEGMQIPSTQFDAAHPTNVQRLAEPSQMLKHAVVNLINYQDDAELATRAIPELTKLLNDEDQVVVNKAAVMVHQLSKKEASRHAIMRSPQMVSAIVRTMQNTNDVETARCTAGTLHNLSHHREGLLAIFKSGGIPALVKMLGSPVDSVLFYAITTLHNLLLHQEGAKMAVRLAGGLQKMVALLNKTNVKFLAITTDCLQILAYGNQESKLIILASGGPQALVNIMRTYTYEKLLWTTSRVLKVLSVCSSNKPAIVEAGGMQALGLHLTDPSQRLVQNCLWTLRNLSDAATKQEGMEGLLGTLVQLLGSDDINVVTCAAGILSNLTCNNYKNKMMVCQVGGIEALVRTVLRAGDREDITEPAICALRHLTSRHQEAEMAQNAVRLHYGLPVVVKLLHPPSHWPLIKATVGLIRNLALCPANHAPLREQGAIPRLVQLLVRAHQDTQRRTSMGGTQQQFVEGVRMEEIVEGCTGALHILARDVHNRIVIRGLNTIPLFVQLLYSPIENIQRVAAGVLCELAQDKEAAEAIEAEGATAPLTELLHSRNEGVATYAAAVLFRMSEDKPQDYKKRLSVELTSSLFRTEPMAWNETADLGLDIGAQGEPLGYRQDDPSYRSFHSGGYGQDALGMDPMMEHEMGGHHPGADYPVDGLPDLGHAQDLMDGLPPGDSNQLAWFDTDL
Briefly: Electrophoretic mobility shift assay (EMSA), TCF-binding site of the S100A4 promoter. Type of experiment: cell-based. How it is done:
Electrophoretic mobility shift assay (EMSA) was performed as described earlier (4). 5×10^6 HCT116 cells were plated into a 10 cm culture dish and were given 15 hour to attach to the bottom of the dish. Cells were treated with 0.1, 0.3, 0.6 or 1 μM niclosamide or the respective amount of DMSO for 24 hours. For each condition 5 μg nuclear extracted protein was incubated 30 minutes at room temperature with 0.05% w/v poly dI⋅dC, 0.5 mM Tris, 0.05 mM EDTA, 2.5% v/v glycerol, 0.2% v/v NP-40, 5 mM MgCl2 and double-stranded biotinylated oligonucleotides (sense 5′-[…]-3′, antisense 3′-[…] T-5′) encompassing the TCF-binding site of the S100A4 promoter. For supershift 1.25 μg monoclonal CTNNB1 antibody (BD Biosciences) was added. […]
For WNT pathway analysis the following cells were applied: HCT116 cells (heterozygous for gain-of-function-mutated CTNNB1; wt/mut), HAB-68mut cells (deletion mutant of HCT116, expressing only gain-of-function-mutated CTNNB1: −/mut) and HAB-92 wt cells (deletion mutant of HCT116, expressing only wild-type CTNNB1: wt/−). […] Reporter gene expression was determined by luciferase activity measurement. […] S100A4 expression was analyzed by qRT-PCR and immunoblot. […] Cells were treated with 1 μM niclosamide for 24 hours and cell migration was determined by Boyden chamber assay. […] Differences were analyzed by Student's t test (n.s.; not statistically significant). […]

`O=C(Nc1ccc([N+](=O)[O-])cc1Cl)c1cc(Cl)ccc1O` [niclosamide, 2′,5-dichloro-4′-nitrosalicylanilide]: the “supershift with monoclonal anti-CTNNB1” value (nuclear extracts from 1 μM niclosamide-treated HCT116 cells) is “No supershift could be detected”. Besides, the CTNNB1/TCF/oligo complex result (nuclear extracts of HCT116 cells, increasing concentrations (0.1, 0.3, 0.6 or 1 μM)) is reported as “interrupted the CTNNB1/TCF/oligo complex in a concentration-dependent manner”.

For the origin of these results see patent US11331290B2, “Niclosamide for the treatment of cancer metastasis” (Max-Delbrück-Centrum für Molekulare Medizin in der …, priority 2011, dated 2022).
